Our source for the IC50, Ki and Imax values is ChEMBL document CHEMBL4007427, “Inhibition of the Aldehyde Dehydrogenase 1/2 Family by Psoralen and Coumarin Derivatives” (J Med Chem, 2017).

The target in experiment [1] is T1, Cytosolic 10-formyltetrahydrofolate dehydrogenase (Rattus norvegicus, UniProt P28037).
T1 sequence (P28037 whole entry): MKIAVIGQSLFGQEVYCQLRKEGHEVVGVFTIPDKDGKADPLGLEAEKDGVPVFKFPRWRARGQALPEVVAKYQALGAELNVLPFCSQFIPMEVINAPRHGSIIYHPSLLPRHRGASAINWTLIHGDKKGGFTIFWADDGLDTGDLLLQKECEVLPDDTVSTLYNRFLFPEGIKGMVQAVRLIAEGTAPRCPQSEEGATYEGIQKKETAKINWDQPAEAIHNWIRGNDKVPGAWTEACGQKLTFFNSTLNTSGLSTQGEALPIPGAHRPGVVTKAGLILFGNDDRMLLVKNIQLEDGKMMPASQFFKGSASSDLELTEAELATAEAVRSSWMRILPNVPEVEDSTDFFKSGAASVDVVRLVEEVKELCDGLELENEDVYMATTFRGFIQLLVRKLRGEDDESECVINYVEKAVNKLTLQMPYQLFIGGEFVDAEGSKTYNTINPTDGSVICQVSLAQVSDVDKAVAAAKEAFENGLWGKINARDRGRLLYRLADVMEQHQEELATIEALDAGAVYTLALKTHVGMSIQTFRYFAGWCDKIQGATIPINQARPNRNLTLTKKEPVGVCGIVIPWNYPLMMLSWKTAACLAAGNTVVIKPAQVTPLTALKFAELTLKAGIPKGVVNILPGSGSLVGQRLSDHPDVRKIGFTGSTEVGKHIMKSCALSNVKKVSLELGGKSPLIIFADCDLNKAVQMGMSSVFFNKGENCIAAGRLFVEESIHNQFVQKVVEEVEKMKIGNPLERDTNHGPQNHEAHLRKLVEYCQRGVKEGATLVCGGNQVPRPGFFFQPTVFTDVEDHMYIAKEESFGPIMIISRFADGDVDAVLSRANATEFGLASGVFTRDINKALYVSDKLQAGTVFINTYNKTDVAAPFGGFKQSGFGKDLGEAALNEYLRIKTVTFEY
Description: Inhibition of rat ALDH1L1 assessed as reduction in dehydrogenase activity by measuring NAD(P)H level preincubated for 2 mins followed by addition of propionaldehyde as substrate in presence of NAD+ by spectrophotometric method.

Experiment [2] addresses T2, Aldehyde dehydrogenase, dimeric NADP-preferring (Homo sapiens, UniProt P30838).
T2 sequence (P30838 whole entry): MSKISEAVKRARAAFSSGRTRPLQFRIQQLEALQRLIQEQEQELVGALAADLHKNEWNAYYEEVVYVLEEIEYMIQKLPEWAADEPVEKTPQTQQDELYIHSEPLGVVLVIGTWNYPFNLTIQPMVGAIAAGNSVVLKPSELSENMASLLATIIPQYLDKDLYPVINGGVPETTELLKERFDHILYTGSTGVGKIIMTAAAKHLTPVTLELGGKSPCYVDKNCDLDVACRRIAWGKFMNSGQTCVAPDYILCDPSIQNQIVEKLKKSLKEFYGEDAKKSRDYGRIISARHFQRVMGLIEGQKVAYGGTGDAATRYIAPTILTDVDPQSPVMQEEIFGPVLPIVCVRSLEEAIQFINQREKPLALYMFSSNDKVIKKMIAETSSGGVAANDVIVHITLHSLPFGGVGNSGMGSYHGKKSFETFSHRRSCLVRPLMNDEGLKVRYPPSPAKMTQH
Description: Inhibition of full length recombinant human ALDH3A1 expressed in Escherichia coli BL21(DE3) assessed as reduction in dehydrogenase activity by measuring NAD(P)H level preincubated for 2 mins followed by addition of benzaldehyde as substrate in presence of NADP+ by spectrophotometric method.

Experiment [3] has as its target T3, Aldehyde dehydrogenase 1A1 (Homo sapiens, UniProt P00352).
T3 sequence (P00352 whole entry): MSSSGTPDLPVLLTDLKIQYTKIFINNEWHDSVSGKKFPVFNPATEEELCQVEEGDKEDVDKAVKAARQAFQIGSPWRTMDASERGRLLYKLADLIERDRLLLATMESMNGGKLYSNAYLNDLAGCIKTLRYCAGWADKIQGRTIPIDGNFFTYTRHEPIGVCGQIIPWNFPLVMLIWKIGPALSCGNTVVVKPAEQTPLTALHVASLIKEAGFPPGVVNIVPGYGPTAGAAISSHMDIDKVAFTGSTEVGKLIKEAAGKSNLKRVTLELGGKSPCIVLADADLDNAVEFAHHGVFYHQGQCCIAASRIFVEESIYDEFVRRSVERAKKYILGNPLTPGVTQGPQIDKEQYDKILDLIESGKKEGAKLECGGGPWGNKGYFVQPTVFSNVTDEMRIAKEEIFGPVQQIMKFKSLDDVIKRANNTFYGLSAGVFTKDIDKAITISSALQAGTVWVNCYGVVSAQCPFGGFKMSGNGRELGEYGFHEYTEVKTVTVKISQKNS

The target of experiment [4] is T4, Aldehyde dehydrogenase, mitochondrial (Homo sapiens, UniProt P05091).
T4 sequence (P05091 whole entry): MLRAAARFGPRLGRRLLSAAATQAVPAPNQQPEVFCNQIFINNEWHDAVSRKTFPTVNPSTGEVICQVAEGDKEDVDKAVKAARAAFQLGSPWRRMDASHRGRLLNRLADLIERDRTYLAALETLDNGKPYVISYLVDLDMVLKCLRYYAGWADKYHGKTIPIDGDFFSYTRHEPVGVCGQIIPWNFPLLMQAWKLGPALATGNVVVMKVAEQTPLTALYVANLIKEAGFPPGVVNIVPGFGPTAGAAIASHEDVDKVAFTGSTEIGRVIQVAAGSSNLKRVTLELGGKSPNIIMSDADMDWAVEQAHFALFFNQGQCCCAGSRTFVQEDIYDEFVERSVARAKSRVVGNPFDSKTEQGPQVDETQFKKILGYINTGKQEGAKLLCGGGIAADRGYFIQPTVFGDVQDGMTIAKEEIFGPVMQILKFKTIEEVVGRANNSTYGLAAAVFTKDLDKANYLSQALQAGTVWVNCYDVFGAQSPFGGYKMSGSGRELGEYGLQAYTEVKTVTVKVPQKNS
Description: Competitive inhibition of full length recombinant human ALDH2 expressed in Escherichia coli assessed as reduction in dehydrogenase activity using propionaldehyde as substrate in presence of varying levels NAD+ by Lineweaver-Burk plot analysis

The target in experiment [5] is T3, Aldehyde dehydrogenase 1A1. The source holds these as a separate data set.
In experiment [6] the target is T5, Aldehyde dehydrogenase 1A1 (Homo sapiens) (UniProt P00352).
T5 sequence (whole entry): T3 sequence (P00352 whole entry)
Description: Inhibition of full length recombinant human ALDH1A1 expressed in Escherichia coli BL21(DE3) assessed as reduction in dehydrogenase activity by measuring NAD(P)H level preincubated for 2 mins followed by addition of propionaldehyde as substrate in presence of NAD+ by spectrophotometric method relative to control.

Turning to `CCCc1c(C)c2cc3c(C)c(C)oc3cc2oc1=O`, the IC50 entry in experiment [1] was “Not Active”; in experiment [2], “Not Active”; in experiment [3], 220 nM. The Ki in experiment [4] was 19 nM.
Regarding `COC(=O)C(C)Oc1ccc2c(C)cc(=O)oc2c1` (centres undefined), the IC50 result in experiment [1], in experiment [2] and in experiment [5] was “Not Active” in each case. The molecule further returned a Ki in experiment [4] of 310 nM.
Turning to `Cc1oc2cc3oc(=O)c(CCC(=O)N4CCCCC4)c(C)c3cc2c1C`, the half-maximal inhibitory concentration (IC50) result in experiment [2] is “Not Active”; in experiment [3], 130 nM. In addition, in experiment [4], the Ki came out at 1100 nM.
As for `CCCc1cc(=O)oc2cc3oc(C)c(C)c3cc12`, the IC50 result in experiment [2] and in experiment [5] was “Not Active” in each case.
Consider `Cc1oc2cc3oc(=O)c4c(c3cc2c1C)CCC4`, for which, in experiment [6], the Imax lay within 50 to 60%. Moreover, the results for the IC50 entry in experiment [2] and in experiment [3] were “Not Active” and 170 nM, respectively.
Regarding `CCCc1c(C)c2cc3c(C)coc3cc2oc1=O`, the Imax in experiment [6] was found to be 60%. For the same molecule, the IC50 entry in experiment [1] is “Not Active”; in experiment [2], “Not Active”; in experiment [3], 340 nM.
For the molecule `Cc1oc2cc3oc(=O)c(C)c(C)c3cc2c1C`, the IC50 result in experiment [1], in experiment [2] and in experiment [5] was “Not Active” each time.
Take `C/C(=N\O)c1cc2cc(Br)ccc2oc1=O`: the IC50 result in experiment [2] and in experiment [5] was “Not Active” each time. In addition, the affinity in experiment [4] corresponds to a Ki of 2400 nM.
Turning to `Cc1oc2cc3oc(=O)c4c(c3cc2c1C)CCCC4`, the Imax in experiment [6] lay within 50 to 60%. Moreover, the IC50 entry was “Not Active” in experiment [2] and 130 nM in experiment [3].

Usually IC50 stands for the midpoint of a concentration-inhibition curve. In general, Ki refers to a measure of affinity in units of concentration, obtained from inhibition or displacement. Read a high Ki as a looser hold on the target.
